This note sets out measurements from patent US12173349B2, “Lung protease nanosensors and uses thereof” (Massachusetts Institute of Technology, priority 2018, dated 2024).

Where no end group is shown, it is not given here. [ ]: non-standard residue; d: D form. FAM = carboxyfluorescein fluorophore label

Test [1] deals with Eml4-Alk (EA) lung adenocarcinoma model. Nature of the test: urinary ABN readout and classification in Eml4-Alk model. Type of test: in vivo. The conditions noted are these: EA mice. The source says: To assess the generalizability of ABNs to other genetic subtypes by leveraging the Eml4-Alk (EA) model Maddalo et al., Nature 516, 423-428 (2014), an autochthonous model in which intrapulmonary administration of adenovirus encoding two short guide RNAs (sgRNAs) and Cas9 results in translocation and fusion of the Eml4 and Alk genes, yielding lung adenocarcinoma that histologically resembles human disease.
Tumors were initiated in male C57BL/6 mice between 6 and 10 weeks old as described previously (50), by intratracheal administration of 50 μL adenovirus expressing the Ad-EA vector (Viraquest) (1.5×10^8 PFU in Opti-MEM with 10 mM CaCl2)).
It was determined whether the lung nanosensors could be prospectively applied to diagnose disease. […] The classifier was also evaluated on a test cohort that combined both LUAD models and again found strong classification at 7.5 weeks and 10.5 weeks (AUC7.5 wk s=0.97; AUC10.5 wk s=0.93) (FIG. 17C).
For all urine experiments, PAR values were normalized to ABN stock concentrations and then mean normalized across all reporters in a given urine sample prior to further statistical analysis. […] Ten independent train-test trials were run for each classification problem, and classification performance was evaluated with receiver operating characteristic (ROC) statistics calculated in MATLAB. […]

Test [2] concerns Kras and p53 mutant lung adenocarcinoma (KP mice). Nature of the test: urinary ABN readout and random forest classification in KP lung adenocarcinoma model. Type of test: in vivo. As to conditions: KP mice. The procedure: To characterize ABN performance in vivo, 14 protease-sensitive ABNs were administered to KP mice and healthy, age and sex-matched controls at 5, 7.5 and 10.5 weeks after tumor initiation. Mouse bladders were voided one hour after intrapulmonary delivery and all fresh urine produced during the subsequent hour (from 60-120 minutes after administration) was pooled and collected. LC-MS/MS was performed and peak area ratios (defined as peak area of urinary reporter divided by peak area of spiked-in internal standard) of protease-sensitive reporters were mean-normalized within each sample to reduce mouse-to-mouse variation.
A random forest classifier was then sought to be built to enable prospective diagnosis of lung cancer in KP mice. Random forest is a high-performance classifier, applicable to a wide variety of classification tasks, that generates a collection of decision trees (a “forest”) that are sampled to produce classification results (Breiman, Machine Learning 45, 5-32, 2001). A random forest classifier was trained using 50% of control mice at 5 weeks, 7.5 weeks and 10.5 weeks, as well as 50% of KP mice at 7.5 weeks (FIG. 6A). The classifier assigned a probability that each mouse belonged to either the KP cohort or the healthy control cohort (FIG. 6B, “Training” panel), achieving perfect separation of control and KP mice. The classifier was then sought to be tested on an independent validation cohort consisting of classifier-naive KP mice at 5 weeks, 7.5 weeks and 10.5 weeks post-induction, as well as the remaining control mice from each time point.
Male B6/SV129 Kras^LSL-G12D/+; Trp53^fl/fl (KP) mice between 18 and 30 weeks old were used for lung adenocarcinoma experiments. Tumors were initiated, as described previously (DuPage et al., Nat Protoc 4, 1064-1072 (2009)), by the intratracheal administration of 50 μL of adenovirus-SPC-Cre (2.5×10^8 PFU in Opti-MEM with 10 mM CaCl2)) under isoflurane anesthesia. […] Tumor growth was monitored by micro computed tomography (microCT) imaging (General Electric) and was scored by a blinded radiation oncologist using MicroView (Parallax Innovations) (Table 4). Tumor volumes were calculated by using the ROI sphere/elliptical tool.
ABN constructs (GluFib-Substrate-PEG-840 kDa) for urinary experiments were synthesized by CPC Scientific (Sunnyvale, CA). ABNs were dosed (50 μL total volume, 20 μM concentration per ABN) by intratracheal intubation, as described above. Bladders were voided 60 minutes after ABN administration and all urine produced 60-120 min after ABN administration was collected using custom tubes in which the animals rest upon 96-well plates that capture urine. Urine was pooled and frozen at −80° C. until analysis by LC-MS/MS.
Liquid chromatography/tandem mass spectrometry was performed by Syneos Health (Princeton, NJ) using a Sciex 6500 triple quadrupole instrument. Briefly, urine samples were treated with UV irradiation to photocleave the ANP linker and liberate the Glu-Fib reporter from residual peptide fragments. Samples were extracted by solid-phase extraction and analyzed by multiple reaction monitoring by LC-MS/MS to quantify concentration of each Glu-Fib mass variant. Analyte quantities were normalized to a spiked-in internal standard and concentrations were calculated from a standard curve using peak area ratio (PAR) to the internal standard. Mean normalization was performed on PAR values to account for mouse-to-mouse differences in ABN inhalation efficiency and urine concentration.
Principal component analysis (PCA) was performed on mean normalized PAR values in the R statistical environment (Team, R.C. R, R Foundation for Statistical Computing, Vienna, Austria, 2017) using the prcomp function. Binary classification was performed using the Caret package (Kuhn, M. caret: Classification and Regression Training. (2017)) in the R statistical environment). […]

Test [3] relates to 15 proteases in the LUAD protease panel. The test is described as follows: in vitro recombinant protease screen of FRET-paired substrates. The class given is biochemical. As to conditions: fluorescence fold change at 45 minutes; 1 μM substrate, 12.5 nM recombinant enzyme; MP metallo-, SP serine, AP aspartic protease. The source says: Hundreds of peptide sequences have been previously designed and validated as protease substrates, leveraging known catalytic specificities of different protease families, published datasets and substrate sequences in databases like cutDB and MEROPS (Igarashi et al., Nucleic Acids Res 35, D546-549, 2007; Rawlings et al., Nucleic Acids Res 46, D624-D632, 2018). Fourteen of these substrates were nominated in an effort to cover the specificity profiles of metallo-, serine and aspartic endoproteases, all of which were included in the LUAD protease panel, and the catalytic activity of each protease-substrate pair was characterized. Quenched probes that incorporated the 14 peptide substrates were synthesized such that they fluoresce upon proteolytic cleavage to enable real-time monitoring of protease activity in vitro (FIG. 3A and Table 2). Each probe was incubated with each protease in the panel and fluorescence was monitored over 45 minutes. Shown are sample kinetic plots monitoring dequenching of the 14 FRET-paired probes when incubated with (above) and without (below) recombinant matrix metalloproteinase 3 (MMP3) (FIG. 3B). […] See also FIG. 19.
Fluorogenic protease substrates were synthesized by CPC Scientific. Recombinant proteases were purchased from Enzo Life Sciences, R&D Systems and Haematologic Technologies. For recombinant protease assays, fluorogenic substrates PPQ1-14 (1 μM final concentration) were incubated in 30 μL final volume in appropriate enzyme buffer, according to manufacturer specifications, with 12.5 nM recombinant enzyme at 37° C. (FIG. 3). Proteolytic cleavage of substrates was quantified by increases in fluorescence over time by fluorimeter (Tecan Infinite M200 Pro). Enzyme cleavage rates were quantified as relative fluorescence increase over time normalized to fluorescence before addition of protease. Hierarchical clustering was performed in GENE-E, using fluorescence fold changes at 45 minutes.

A further test concerns PA01 supernatant. Nature of the test: cleavage of FRET-paired substrates by bacterial supernatant. The class given is biochemical, Pseudomonas aeruginosa. As for the experimental part: (§1) The specificity of LAS and ELA for P. aeruginosa cleavage was tested by collecting supernatants from PA01 or Staphylococcus aureus cultures and incubating them with FRET-paired substrates LAS-Q and ELA-Q in 384 well plates. […] To investigate whether the LAS and ELA substrates are also susceptible to cleavage by host proteases, each was incubated with recombinant mouse proteases.
(§2) Supernatant from PA01 and S. aureus were collected and added to substrates in 384 well plates and dequenching of FAM was monitored at 37° C. (Tecan). Fluorescence change at 30 minutes was reported. For recombinant protease assays, enzyme was added to the substrates in enzyme-specific buffer (MMP7 & 9 buffer: 50 mM Tris, 150 mM NaCl, 5 mM CaCl2), […], pH 7.5; Thrombin: PBS; NE: 100 mM HEPES, 500 mM NaCl, 0.05% Tween 20) in a 384 well plate for time-lapse fluorimetry to measure dequenching at 37° C. (Tecan).

Another test deals with T1, neutrophil elastase (Mus musculus, UniProt Q3UP87).
T1 sequence (Q3UP87 27-265): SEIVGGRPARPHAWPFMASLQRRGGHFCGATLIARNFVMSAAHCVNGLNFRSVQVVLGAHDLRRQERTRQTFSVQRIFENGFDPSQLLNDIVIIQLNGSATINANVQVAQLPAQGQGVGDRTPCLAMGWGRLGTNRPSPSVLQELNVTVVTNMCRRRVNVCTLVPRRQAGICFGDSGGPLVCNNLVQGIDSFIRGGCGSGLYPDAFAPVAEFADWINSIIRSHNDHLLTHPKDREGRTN
The test is described as follows: recombinant host protease cleavage assay. Type of test: biochemical. As for the experimental part: as §1, §2

A further test deals with thrombin (Mus musculus, UniProt P19221). The test is described as follows: recombinant host protease cleavage assay. The class given is biochemical. As for the experimental part:
as §1, §2

A further test has as its target T2, MMP7 (Mus musculus, UniProt Q10738).
T2 sequence (Q10738 95-264): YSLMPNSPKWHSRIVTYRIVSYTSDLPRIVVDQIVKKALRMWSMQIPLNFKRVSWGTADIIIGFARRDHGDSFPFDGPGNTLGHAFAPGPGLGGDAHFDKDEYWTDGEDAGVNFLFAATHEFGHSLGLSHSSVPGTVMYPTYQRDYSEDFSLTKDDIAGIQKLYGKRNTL
Nature of the test: recombinant host protease cleavage assay. Type of test: biochemical. The procedure: as §1, §2

The target in the next test is MMP13 (Mus musculus, UniProt P33435). Nature of the test: recombinant host protease cleavage assay. Type of test: biochemical. As for the experimental part:
as §1, §2

In test [4] the test system is P. aeruginosa clinical isolate strains. The test is described as follows: cleavage of FRET-paired substrates by clinical isolate supernatants. The class given is biochemical, Pseudomonas aeruginosa. The procedure:
P. aeruginosa strains isolated from de-identified clinical samples were generously provided by Dr. Deborah Hung, MD, PhD (Massachusetts General Hospital). Cultures of each were grown in LB broth overnight, then were subcultured in fresh LB and each strain grown to OD-matched mid log phase (OD600˜0.5). Supernatants were collected by centrifugation and substrate cleavage was monitored as described above.

Test [5] has as its system Staphylococcus aureus supernatant. The test is described as follows: cleavage of FRET-paired substrates by bacterial supernatant. As to conditions: S. aureus culture supernatant, fluorescence change at 30 minutes. The class given is biochemical. The procedure: as §1, §2

For “PP01: ABN: reporter e(+2G)(+6V)ndneeGFFsAr, ANP, substrate PQGIWGQ, nanocarrier PEG8-40 kDa (chain 1 [dE]G[+6V][dN][dD][dN][dE][dE]GFF[dS]A[dR]; not fully specified (some residues); printed as PP01: ABN: reporter e(+2G)(+6V)ndneeGFFsAr, ANP, substrate PQGIWGQ, nanocarrier PEG8-40 kDa; also: ANP photolabile linker, PEG8-40 kDa nanocarrier, linkage of reporter, ANP, substrate and carrier not given here)”, the urinary reporter enrichment result in test [1] is “consistent enrichment”; in test [2], “not in KP mice”. Moreover, the “protease class(es) cleaving the substrate in vitro” value in test [3] is recorded as “metalloprotease-specific”.
As for “ELA-Q: FRET-paired (FAM fluorophore, Dabcyl quencher) substrate for elastases including neutrophil elastase; includes SEQ ID NO: 47 (GAAFAGK(FAM); also: Dabcyl quencher, site not given here)”, the “cleavage by supernatant (fluorescence signal)” value was “Significant increases” in the test with PA01 supernatant (PA01 culture supernatant, fluorescence change at 30 minutes) and “Significant increases” in test [5]. In the test on PA01 supernatant (range of substrate concentrations, compared with LAS substrate), the “cleavage potency by Michaelis-Menten type analysis” value is listed as “more potently cleaved”. Besides, the “cleavage by recombinant protease” value with neutrophil elastase was “cleaved”; with thrombin it was “resist cleavage”; with MMP7 it was “resist cleavage”; with MMP13, “resist cleavage”. Moreover, the “extent of cleavage compared with LAS-Q” value in [4] (bacterial-derived proteases) is recorded as “more extensively cleaved”. Moreover, in test [4] (five clinical isolate strains), the “strains whose supernatant gave significant cleavage” value was 3 of the 5 strains.
